Reference: ChEMBL document CHEMBL1201862, “PubChem BioAssay data set” (2004)
Activity calls are given as the source filed them.

Columns and labels:
HeLa = assay: viability loss in HeLa cells – cell-based, 24 h, cherry-picked samples, cytotoxicity control, dose response (AID 504726); assay type: functional; conditions: Homo sapiens;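 also: potency for cytotoxicity as loss of luminescence signal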
Salmon testes DNA = assay: acridine orange-DNA binding displacement – biochemical, fluorescence polarization, cherry-picked samples, set 2, artefact control for KSHV LANA DNA-binding inhibitor project, dose response (AID 504727); design: species or system Salmonidae
ORF 73 = biological target: T1, ORF 73 (Human herpesvirus 8, UniProt O40947); assay: KSHV LANA DNA-binding disruption – biochemical, fluorescence polarization, cherry-picked samples, dose response (AID 504725); design: species or system Human gammaherpesvirus 8;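 also: fluorescence polarization of a labeled DNA duplex reporting LANA DNA binding; potency is for inhibitors that block LANA binding to the DNA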
T1 sequence (O40947 whole entry): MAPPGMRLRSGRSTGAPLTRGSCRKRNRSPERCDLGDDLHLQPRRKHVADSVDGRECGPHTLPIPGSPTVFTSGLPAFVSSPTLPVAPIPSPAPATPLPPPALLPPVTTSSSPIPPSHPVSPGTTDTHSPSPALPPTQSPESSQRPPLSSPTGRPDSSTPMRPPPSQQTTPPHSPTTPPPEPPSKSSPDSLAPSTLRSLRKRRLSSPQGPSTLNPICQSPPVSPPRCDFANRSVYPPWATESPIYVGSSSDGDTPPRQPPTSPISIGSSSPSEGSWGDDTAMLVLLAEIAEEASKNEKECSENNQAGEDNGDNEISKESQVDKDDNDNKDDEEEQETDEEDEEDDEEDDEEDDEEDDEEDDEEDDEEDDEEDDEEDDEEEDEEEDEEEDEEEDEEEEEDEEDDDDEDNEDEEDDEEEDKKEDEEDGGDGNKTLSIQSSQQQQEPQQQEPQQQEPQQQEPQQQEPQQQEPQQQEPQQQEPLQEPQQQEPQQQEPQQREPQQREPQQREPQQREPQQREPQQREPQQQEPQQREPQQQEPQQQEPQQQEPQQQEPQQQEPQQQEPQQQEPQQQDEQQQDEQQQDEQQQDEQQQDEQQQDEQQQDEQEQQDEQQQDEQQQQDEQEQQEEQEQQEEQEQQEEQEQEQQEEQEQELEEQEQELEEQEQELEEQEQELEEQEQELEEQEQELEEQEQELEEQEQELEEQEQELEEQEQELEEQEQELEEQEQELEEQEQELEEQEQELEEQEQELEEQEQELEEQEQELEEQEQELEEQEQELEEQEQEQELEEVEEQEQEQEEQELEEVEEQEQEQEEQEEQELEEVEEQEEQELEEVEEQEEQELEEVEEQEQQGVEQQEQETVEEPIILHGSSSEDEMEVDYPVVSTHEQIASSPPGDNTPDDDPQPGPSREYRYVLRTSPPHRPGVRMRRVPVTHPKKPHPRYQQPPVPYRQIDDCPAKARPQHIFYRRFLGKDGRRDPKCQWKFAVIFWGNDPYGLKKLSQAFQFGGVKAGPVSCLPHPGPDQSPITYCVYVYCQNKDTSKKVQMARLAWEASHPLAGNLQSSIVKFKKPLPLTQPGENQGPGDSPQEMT

Troponin, cardiac muscle = Troponin, cardiac muscle (Homo sapiens, UniProt P19429+P45379+P63316); assay: compounds desensitizing RTF to calcium – biochemical, fluorescence, cardiac regulated thin filaments, triplicate IC50, dose response (AID 504742); assay type: protein-complex assay
Hexokinase HKDC1 = biological target: T2, Hexokinase HKDC1 (Homo sapiens, UniProt Q2TB90); assay: inhibition of HKDC1 glucose phosphorylation – biochemical, W721R variant, dose response (AID 504729); assay type: functional
T2 sequence (Q2TB90 whole entry): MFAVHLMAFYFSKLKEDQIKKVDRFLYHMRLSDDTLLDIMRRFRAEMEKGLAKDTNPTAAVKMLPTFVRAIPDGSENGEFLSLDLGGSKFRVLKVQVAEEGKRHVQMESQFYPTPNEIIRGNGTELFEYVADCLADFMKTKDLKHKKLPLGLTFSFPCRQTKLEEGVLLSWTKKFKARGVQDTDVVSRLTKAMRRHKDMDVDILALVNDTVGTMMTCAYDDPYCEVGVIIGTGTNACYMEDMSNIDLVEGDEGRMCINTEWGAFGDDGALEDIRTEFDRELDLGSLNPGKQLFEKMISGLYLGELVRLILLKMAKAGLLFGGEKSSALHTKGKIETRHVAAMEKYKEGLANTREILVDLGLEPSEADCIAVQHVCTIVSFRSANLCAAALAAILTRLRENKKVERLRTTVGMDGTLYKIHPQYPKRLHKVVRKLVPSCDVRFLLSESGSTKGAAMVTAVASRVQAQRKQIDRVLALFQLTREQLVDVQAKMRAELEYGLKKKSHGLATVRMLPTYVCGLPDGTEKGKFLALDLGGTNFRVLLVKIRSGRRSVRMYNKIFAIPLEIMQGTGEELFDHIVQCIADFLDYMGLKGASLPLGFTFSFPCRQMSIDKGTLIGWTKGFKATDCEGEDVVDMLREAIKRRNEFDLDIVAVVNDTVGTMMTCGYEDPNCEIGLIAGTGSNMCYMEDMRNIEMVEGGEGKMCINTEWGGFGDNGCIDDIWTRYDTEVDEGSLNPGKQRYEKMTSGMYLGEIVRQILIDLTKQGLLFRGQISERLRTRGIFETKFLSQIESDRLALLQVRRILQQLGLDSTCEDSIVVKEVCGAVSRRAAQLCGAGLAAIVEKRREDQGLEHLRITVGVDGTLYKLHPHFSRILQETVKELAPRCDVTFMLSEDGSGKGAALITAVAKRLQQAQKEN

Genome polyprotein = Genome polyprotein (dengue virus type 2, UniProt P29990); assay: flavivirus cap methylation enzyme inhibition – biochemical, confirmation dose response, primary screen (AID 588689); assay type: functional
[1] = biological target: T3, Polyadenylate-binding protein 1 (Homo sapiens, UniProt P11940); assay: MLLE binding blockers, Cy5 peptide tracer – biochemical, fluorescence polarization, Cy5-PAM2 peptide, secondary, miRNA deadenylation inhibitor project, dose response (AID 602260); assay type: functional; conditions: read-out: IC50_Mean
[2] = biological target: T3, Polyadenylate-binding protein 1; assay: MLLE domain peptide-binding blockers, IC50 – biochemical, fluorescence polarization, FITC-PAM2 peptide, dose response (AID 602259); assay type: functional; conditions: read-out: IC50_Mean
[3] = biological target: T4, Small ubiquitin-related modifier 2 (Homo sapiens, UniProt P61956); assay: disruption of SUMO2 interaction with SIM peptide – biochemical, fluorescence polarization, uHTS hits, selectivity assay for SUMO1 interaction inhibitor project, dose response (AID 624385); assay type: functional; conditions: read-out: IC50_Mean
[4] = biological target: T5, Small ubiquitin-related modifier 1 (Homo sapiens, UniProt P63165); assay: SUMO1 protein interaction blockers, potency – biochemical, fluorescence polarization, uHTS hits, dose response (AID 624382); assay type: functional; conditions: read-out: IC50_Mean
[5] = biological target: T4, Small ubiquitin-related modifier 2; assay: SUMO2 binding disruption by SUMO1 hits – biochemical, FRET, human SUMO2, uHTS hits, selectivity assay for SUMO1 interaction inhibitor project, dose response (AID 624384); assay type: functional; conditions: read-out: IC50_Mean
[6] = biological target: T5, Small ubiquitin-related modifier 1; assay: SUMO1 protein-protein binding blockers, potency – biochemical, FRET, dose response (AID 624383); assay type: functional; conditions: read-out: IC50_Mean
[7] = biological target: T6, Rac GTPase-activating protein 1 (Homo sapiens, UniProt Q9H0H5); assay: blockers of MgcRacGAP-driven Rac1 GTP hydrolysis – biochemical, ADP Hunter fluorescence, primary and confirmatory, confirmation (AID 624330); assay type: functional
T6 sequence (Q9H0H5 whole entry): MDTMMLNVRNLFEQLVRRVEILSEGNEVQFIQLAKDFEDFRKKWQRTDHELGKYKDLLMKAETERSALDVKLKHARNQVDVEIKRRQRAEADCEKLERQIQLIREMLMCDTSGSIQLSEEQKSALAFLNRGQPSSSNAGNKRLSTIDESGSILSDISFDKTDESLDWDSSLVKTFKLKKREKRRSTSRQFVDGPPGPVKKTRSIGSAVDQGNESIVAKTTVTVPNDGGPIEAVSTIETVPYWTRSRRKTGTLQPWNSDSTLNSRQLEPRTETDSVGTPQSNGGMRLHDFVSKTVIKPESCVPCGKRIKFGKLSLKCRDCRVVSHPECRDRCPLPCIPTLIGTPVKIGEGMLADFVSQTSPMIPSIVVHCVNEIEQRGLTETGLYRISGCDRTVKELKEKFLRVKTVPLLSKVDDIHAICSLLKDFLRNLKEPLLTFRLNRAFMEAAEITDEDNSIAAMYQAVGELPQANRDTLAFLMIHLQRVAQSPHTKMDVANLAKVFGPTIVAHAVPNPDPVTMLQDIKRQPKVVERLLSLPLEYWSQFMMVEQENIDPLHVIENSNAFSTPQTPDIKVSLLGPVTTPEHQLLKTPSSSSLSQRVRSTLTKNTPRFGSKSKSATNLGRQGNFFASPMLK

Estrogen receptor = biological target: T7, Estrogen receptor (Homo sapiens, UniProt P03372); assay: ERα coactivator recruitment enhancers – biochemical, TR-FRET, ERα LBD, dose response (AID 737)
T7 sequence (P03372 whole entry): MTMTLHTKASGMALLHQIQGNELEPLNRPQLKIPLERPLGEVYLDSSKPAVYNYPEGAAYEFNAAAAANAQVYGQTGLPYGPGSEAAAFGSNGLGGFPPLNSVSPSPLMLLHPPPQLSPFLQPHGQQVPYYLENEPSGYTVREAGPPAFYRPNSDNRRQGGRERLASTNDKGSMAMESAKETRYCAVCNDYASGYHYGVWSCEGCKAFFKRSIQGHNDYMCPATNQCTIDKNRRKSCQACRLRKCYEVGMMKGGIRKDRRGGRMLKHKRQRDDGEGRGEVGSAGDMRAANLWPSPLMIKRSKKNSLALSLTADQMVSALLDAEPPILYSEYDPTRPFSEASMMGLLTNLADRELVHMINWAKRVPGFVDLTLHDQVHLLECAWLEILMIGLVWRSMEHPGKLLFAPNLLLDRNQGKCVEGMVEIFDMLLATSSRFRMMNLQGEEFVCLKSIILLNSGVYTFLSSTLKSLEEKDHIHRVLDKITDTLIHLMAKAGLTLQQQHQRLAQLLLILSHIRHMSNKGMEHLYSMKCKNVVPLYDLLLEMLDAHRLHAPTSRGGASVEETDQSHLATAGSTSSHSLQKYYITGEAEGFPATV

[8] = biological target: G-protein coupled receptor 55 (Homo sapiens, UniProt Q9Y2T6); assay: selective activators of receptor GPR55 – imaging, U2OS cells, beta-arrestin-GFP redistribution, primary screen (AID 1961); assay type: functional
[9] = biological target: T8, Short transient receptor potential channel 4 (Mus musculus, UniProt Q9QUQ5); assay: potentiation of DAMGO-evoked TRPC4 calcium signal – cell-based, HEK293 TRPC4/mu-opioid, Fluo-4 calcium, EC20 DAMGO, dose response (AID 434941); assay type: functional
T8 sequence (Q9QUQ5 whole entry): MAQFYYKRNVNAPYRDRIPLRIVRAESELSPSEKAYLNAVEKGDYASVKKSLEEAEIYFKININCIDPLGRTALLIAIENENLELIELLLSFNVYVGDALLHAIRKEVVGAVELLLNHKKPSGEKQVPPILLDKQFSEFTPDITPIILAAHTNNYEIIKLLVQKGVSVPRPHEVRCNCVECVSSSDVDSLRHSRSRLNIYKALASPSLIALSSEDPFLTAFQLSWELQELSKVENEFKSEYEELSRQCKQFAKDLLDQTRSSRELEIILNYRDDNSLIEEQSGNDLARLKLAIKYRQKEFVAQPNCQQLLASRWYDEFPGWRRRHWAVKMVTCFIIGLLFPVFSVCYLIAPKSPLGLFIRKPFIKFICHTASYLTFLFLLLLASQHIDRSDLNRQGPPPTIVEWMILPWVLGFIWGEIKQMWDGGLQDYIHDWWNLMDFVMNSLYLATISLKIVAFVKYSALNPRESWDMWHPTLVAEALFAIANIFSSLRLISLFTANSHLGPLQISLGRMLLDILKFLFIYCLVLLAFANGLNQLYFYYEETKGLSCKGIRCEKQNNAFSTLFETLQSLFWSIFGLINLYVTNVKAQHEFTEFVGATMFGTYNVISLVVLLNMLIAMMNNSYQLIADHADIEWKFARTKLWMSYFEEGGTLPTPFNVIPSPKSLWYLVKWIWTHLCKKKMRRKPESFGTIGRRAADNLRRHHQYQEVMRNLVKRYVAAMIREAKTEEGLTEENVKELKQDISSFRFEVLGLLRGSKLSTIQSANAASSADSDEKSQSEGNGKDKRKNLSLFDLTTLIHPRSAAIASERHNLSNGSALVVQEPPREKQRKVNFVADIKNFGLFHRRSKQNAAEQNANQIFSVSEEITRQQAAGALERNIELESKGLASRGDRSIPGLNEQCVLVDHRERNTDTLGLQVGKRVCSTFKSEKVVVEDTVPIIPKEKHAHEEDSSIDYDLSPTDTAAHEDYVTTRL

[10] = potency of ADAM10 substrate cleavage blockers – biochemical, QFRET, dose response (AID 743254);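 also: ADAM10 enzyme with the DM2 quenched FRET peptide as substrate; EDANS fluorescence gain as the protease cuts the substrate; inhibitor potency against ADAM10 proteolytic activity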
[11] = biological target: Disintegrin and metalloproteinase domain-containing protein 17 (Homo sapiens, UniProt P78536); assay: inhibition of ADAM17 substrate cleavage – biochemical, quenched FRET substrate, counter-screen for ADAM10 exosite inhibitor project, dose response (AID 743253)

SMILES: O=S(=O)(O)c1ccc(O)c2cc(Nc3ccccc3)ccc12
- AC50 (HeLa): 233 µM (active)
- AC50 (Salmon testes DNA): 98.3 µM (active)
- AC50 (ORF 73): 6.72 µM (active)
- IC50 (Troponin, cardiac muscle): 3.89 µM (active)
- IC50 (Hexokinase HKDC1): 9.14 µM (active)
- IC50 (Genome polyprotein): 20 µM (active)
- IC50 [1]: > 66 µM (inactive)
- IC50 [2]: > 66 µM (inactive)
- IC50 [3]: 7.83 µM (active)
- IC50 [4]: 11.6 µM (active)
- IC50 [5]: 0.58 µM (active)
- IC50 [6]: 0.88 µM (active)
- IC50 [7]: 19.6 µM (active)

SMILES: Cc1noc(C)c1COC(=O)c1cc2c3ccccc3n(C)c2s1
- EC50 (Estrogen receptor): 23.1 µM (active)
- EC50 [8]: 20.4 µM (inactive)

SMILES: O=C(NCc1ccccc1)C1=C[C@H](c2ccc(Br)cc2)C[C@H](OCc2ccc(CO)cc2)O1
- EC50 [9]: 10.6 µM (active)
- IC50 [10]: > 69.5 µM (inactive)
- IC50 [11]: > 69.5 µM (inactive)
